Where a SMILES comes first, the peptide text is derived from it. [ ]: non-standard residue; d: D form. 2Nal = N[C@@H](Cc1ccc2ccccc2c1)C(=O)O
Tests used:
[1] = tested on: HFW cells; test: Cell live image (phase-contrast and immunofluorescence), HFW; format: cell-based, human; settings: 12 μM, 5 minutes
Protocol: (§1) PC9 and HFW cells (˜10^5 cells) were pre-seeded in 6-cm polystyrene dishes for 24 hours. Cell nuclear is labeled by 4′,6-diamidino-2-phenylindole (DAPI) with a final concentration of 10 μg/ml. After 10 minutes of incubation, the cells were washed by PBS. FITC-K4R2Nal2S1-NH2 was added to the dishes with the final concentration of 12 μM. After incubation for 5, 10, 20 minutes or 1 hour at 37° C., the cells were washed with PBS. The images of FITC-K4R2Nal2S1-NH2 in PC9 cells and HFW cells were observed using the Inverted Fluorescent Microscope Zeiss/Observer.Z1.
(§2) To investigate the mode of actions of K4R2Nal2-S1 peptide on human cancer cell line (PC9) and human fibroblast (HFW), cells were treated with FITC-labeled K4R2-Nal2-S1. Nucleus was labeled with DAPI, and the blue signal was observed by UV exciting light. The fluorescence distribution of FITC-labeled K4R2-Nal2-S1 peptide on cell membrane was visualized by the inverted fluorescent microscope.

[2] = tested on: PC9 cells; test: Cell live image (phase-contrast and immunofluorescence), PC9; format: cell-based, human; settings: 12 μM, 5 minutes
Protocol: as §1, §2

[3] = tested on: Gram-positive and Gram-negative bacterium; test: Antimicrobial activity under several salt concentrations (summary in words); format: cell-based
Protocol: Escherichia coli strain (ATCC 25922), Staphylococcus aureus subsp strain (ATCC 25923, methicillin-resistant), and Pseudomonas aeruginosa Migula strain (ATCC 27853, ampicillin-resistant) were used to test the antibacterial activity of the peptides. Bacteria were cultured in sterilized Mueller-Hinton (MH) culturing medium at 200 rpm and 37° C. for 8 hours.
The antibacterial activities were determined by the standard broth microdilution method of National Committee for Clinical Laboratory Standards with the LYM broth. The LYM broth contains 5.4 mM KCl, 5.6 mM Na2HPO4, 0.5 mM MgSO4, and 1.0 mM sodium citrate. In addition, 0.4 mg of ZnCl2, 2.0 mg of FeCl3. 6H2O, 0.1 mg of CuSO4. 5H2O, 0.1 mg of MnSO4.H2O, 0.1 mg of Na2B4O7.10H2O, 700 mg of amino acid mixtures without tryptophan (Clontech), and 20 mg of L-Tryptophan were added per liter of medium. A vitamin mixture (100×, Sigma) and glucose at final concentration of 2% were also added.
1 μl peptide solutions (ranging from 5000 μg/ml to 78 μg/ml in serial dilution) was prepared and mixed with 99 μl inoculum (5×10^5 CFU/ml) in polypropylene 96-well plate. The turbidity at OD 600 nm was measured by ELISA plate reader (Thermo Max, Molecular Devices, Sunnyvale, Calif.). The absorbance of culture medium and inoculum suspension without peptides were used as the negative and positive control, respectively. […]

[4] = tested on: caspase 3 in HFW cells; test: Western blot for activated caspase 3, HFW; format: cell-based, human

## CC(=O)N[C@@H](CCCCN)C(=O)N[C@@H](CCCCN)C(=O)N[C@@H](CCCCN)C(=O)N[C@@H](CCCCN)C(=O)N[C@@H](CCCNC(=N)N)C(=O)N[C@@H](CCCNC(=N)N)C(=O)N[C@@H](Cc1ccc2ccccc2c1)C(=O)N[C@@H](Cc1ccc2ccccc2c1)C(=O)N[C@@H](CCCCN)C(=O)N[C@@H](CCCCN)C(=O)N[C@@H](Cc1c[nH]c2ccccc12)C(=O)N[C@@H](CCCNC(=N)N)C(=O)N[C@@H](CCCCN)C(=O)N[C@@H](Cc1c[nH]c2ccccc12)C(=O)N[C@@H](CC(C)C)C(=O)N[C@@H](C)C(=O)N[C@@H](CCCCN)C(=O)N[C@@H](CCCCN)C(N)=O [K4R2-Nal2-S1, Ac-KKKKRR-Nal-Nal-KKWRKWLAKK-NH2] (Ac-KKKKRR[2Nal][2Nal]KKWRKWLAKK-NH2)
[1]
  cellular swelling (phase-contrast microscopy): not in HFW cells
[2]
  cellular swelling (phase-contrast microscopy): induced cellular swelling
[3]; LYM broth condition
  effectiveness against bacterium: very effective
[3]; addition of 100 or 200 mM NaCl
  antimicrobial activities in high-salt conditions: promising activities
[4]
  caspase 3 activation (immunoblotting): not in HFW cells
